Activity calls are given as the source filed them. The calls are words filed in the database; no cut-off is given here.
Columns and labels:
[1] = biological target: T1, RAC-alpha serine/threonine-protein kinase (Homo sapiens, UniProt P31749); experiment: Inhibition of Akt1 in human A2780 cells assessed as phosphorylation of Akt at S473 after 2 hrs by Western Blot analysis; format: cell-based
[2] = biological target: T1, RAC-alpha serine/threonine-protein kinase; experiment: Inhibition of Akt1 in human AN3CA cells assessed as phosphorylation of Akt at S473 after 2 hrs by Western Blot analysis; format: cell-based, AN3-CA
[3] = biological target: T1, RAC-alpha serine/threonine-protein kinase; experiment: Inhibition of Akt 1 in human A2780 cells assessed as phosphorylation of Akt at T308 after 2 hrs by Western Blot analysis; format: cell-based
[4] = biological target: T1, RAC-alpha serine/threonine-protein kinase; experiment: Inhibition of Akt 1 in human AN3CA cells assessed as phosphorylation of Akt at T308 after 2 hrs by Western Blot analysis; format: cell-based, AN3-CA
[5] = biological target: T1, RAC-alpha serine/threonine-protein kinase; experiment: Inhibition of Akt1 in human A2780 cells assessed as phosphorylation PRAS40 at T246 after 2 hrs by Western Blot analysis; format: cell-based
[6] = biological target: T1, RAC-alpha serine/threonine-protein kinase; experiment: Inhibition of Akt1 in human AN3CA cells assessed as phosphorylation PRAS40 at T246 after 2 hrs by Western Blot analysis; format: cell-based, AN3-CA
[7] = test system: A2780; experiment: Antiproliferative activity against human A2780 cells after 72 hrs by MTS assay; format: functional, cell-based; details: A2780, 72 h
[8] = test system: AN3-CA; experiment: Antiproliferative activity against human AN3CA cells after 72 hrs by MTS assay; format: functional, cell-based
[9] = biological target: T2, RAC-beta serine/threonine-protein kinase (Homo sapiens, UniProt P31751); experiment: Binding affinity to Akt2 (1 to 481) expressed in Sf9 cells assessed as change in melting temperature at 15 uM
[10] = biological target: T3, RAC-gamma serine/threonine-protein kinase (Homo sapiens, UniProt Q9Y243); experiment: Binding affinity to Akt3 (1 to 479) expressed in Sf9 cells assessed as change in melting temperature at 15 uM
[11] = biological target: T1, RAC-alpha serine/threonine-protein kinase; experiment: Inhibition of Akt1 (1 to 480) expressed in Sf9 cells using biotin-GRPRTSSFAEG as substrate after 20 mins by Alpha-screen assay
[12] = biological target: T2, RAC-beta serine/threonine-protein kinase; experiment: Inhibition of Akt2 (1 to 481) expressed in Sf9 cells using biotin-GRPRTSSFAEG as substrate after 20 mins by Alpha-screen assay
[13] = biological target: T3, RAC-gamma serine/threonine-protein kinase; experiment: Inhibition of Akt3 (1 to 479) expressed in Sf9 cells using biotin-GRPRTSSFAEG as substrate after 20 mins by Alpha-screen assay
[14] = biological target: T1, RAC-alpha serine/threonine-protein kinase; details: Sf9
[15] = biological target: T1, RAC-alpha serine/threonine-protein kinase; experiment: Inhibition of Akt1 (1 to 480) expressed in Sf9 cells by indirect affinity mass spectrometry assay
[16] = biological target: T1, RAC-alpha serine/threonine-protein kinase; details: Sf9; remark: listed apart in the source
Description: Binding affinity to Akt1 (144 to 480) expressed in Sf9 cells assessed as fluorescence quenching by Trp fluorescence assay

[17] = biological target: T1, RAC-alpha serine/threonine-protein kinase; details: Sf9; remark: listed apart in the source
Description: Binding affinity to Akt1 (1 to 480) expressed in Sf9 cells assessed as fluorescence quenching by Trp fluorescence assay

[18] = biological target: T1, RAC-alpha serine/threonine-protein kinase; details: Sf9; remark: listed apart in the source
Description: Binding affinity to Akt1 (1 to 480) expressed in Sf9 cells assessed as change in melting temperature at 15 uM

[19] = biological target: T1, RAC-alpha serine/threonine-protein kinase; details: Sf9; remark: listed apart in the source
Description: Binding affinity to Akt1 (144 to 480) expressed in Sf9 cells assessed as change in melting temperature at 15 uM

T1 sequence (P31749 whole entry): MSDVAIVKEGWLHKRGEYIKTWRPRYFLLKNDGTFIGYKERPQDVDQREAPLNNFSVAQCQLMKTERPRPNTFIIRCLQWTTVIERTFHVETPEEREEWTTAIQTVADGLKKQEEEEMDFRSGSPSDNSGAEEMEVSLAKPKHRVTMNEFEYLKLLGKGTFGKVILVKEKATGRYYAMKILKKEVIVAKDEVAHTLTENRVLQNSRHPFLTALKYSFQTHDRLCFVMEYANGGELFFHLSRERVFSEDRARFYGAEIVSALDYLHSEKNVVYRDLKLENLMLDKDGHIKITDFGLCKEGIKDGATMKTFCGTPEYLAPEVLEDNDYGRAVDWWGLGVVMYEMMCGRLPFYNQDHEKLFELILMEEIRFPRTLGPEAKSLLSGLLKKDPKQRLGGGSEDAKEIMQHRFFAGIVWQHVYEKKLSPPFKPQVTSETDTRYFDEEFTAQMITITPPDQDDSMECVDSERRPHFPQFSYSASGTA
T3 sequence (Q9Y243 whole entry): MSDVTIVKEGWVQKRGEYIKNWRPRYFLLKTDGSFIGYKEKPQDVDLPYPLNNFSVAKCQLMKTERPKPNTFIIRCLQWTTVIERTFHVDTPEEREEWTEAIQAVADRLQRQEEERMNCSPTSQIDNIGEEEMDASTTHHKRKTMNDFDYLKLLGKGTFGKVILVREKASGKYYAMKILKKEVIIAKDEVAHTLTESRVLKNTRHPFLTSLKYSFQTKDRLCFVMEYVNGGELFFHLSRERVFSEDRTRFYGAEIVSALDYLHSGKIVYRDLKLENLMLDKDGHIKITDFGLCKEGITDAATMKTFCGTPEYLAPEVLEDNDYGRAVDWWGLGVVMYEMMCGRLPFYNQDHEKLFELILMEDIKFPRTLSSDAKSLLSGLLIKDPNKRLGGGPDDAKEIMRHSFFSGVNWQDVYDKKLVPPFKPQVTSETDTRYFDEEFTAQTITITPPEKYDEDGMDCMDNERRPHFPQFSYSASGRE
T2 sequence (P31751 whole entry): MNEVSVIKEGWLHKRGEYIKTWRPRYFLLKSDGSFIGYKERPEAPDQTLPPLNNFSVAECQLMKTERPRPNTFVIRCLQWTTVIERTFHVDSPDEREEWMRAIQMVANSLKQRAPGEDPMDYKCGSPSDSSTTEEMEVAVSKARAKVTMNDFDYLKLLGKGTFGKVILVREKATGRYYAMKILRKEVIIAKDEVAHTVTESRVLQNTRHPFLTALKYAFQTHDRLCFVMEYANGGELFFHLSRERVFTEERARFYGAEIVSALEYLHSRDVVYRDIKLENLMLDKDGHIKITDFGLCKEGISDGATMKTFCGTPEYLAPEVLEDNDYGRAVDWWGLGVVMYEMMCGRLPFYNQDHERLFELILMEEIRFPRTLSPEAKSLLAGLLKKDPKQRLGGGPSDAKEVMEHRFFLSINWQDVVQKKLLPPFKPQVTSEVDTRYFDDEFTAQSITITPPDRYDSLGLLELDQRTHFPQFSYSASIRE

| Compound | IC50 [1] [nM] | IC50 [2] [nM] | IC50 [3] [nM] | IC50 [4] [nM] | IC50 [5] [nM] | IC50 [6] [nM] | IC50 [7] [nM] | ΔTm [9] [°C] | IC50 [11] [nM] | IC50 [12] [nM] | IC50 [13] [nM] | ΔTm [14] [°C] | IC50 [8] [nM] | other results |
| --- | --- | --- | --- | --- | --- | --- | --- | --- | --- | --- | --- | --- | --- | --- |
| COc1ccccc1Cn1c(-c2cccnc2N)nc2cc(Br)cnc21 |  |  |  |  |  |  |  |  | > 300000 |  |  |  |  | deltaTm [14]: inactive |
| NCc1ccc(-n2c(-c3cccnc3)nc3cccnc32)cc1 |  |  |  |  |  |  |  |  | 8800 |  |  |  |  | deltaTm [14]: inactive |
| Nc1ncccc1-c1nc2cccnc2n1-c1cccc(CNC(=O)c2ccccc2)c1 |  |  |  |  |  |  |  |  | 13000 |  |  |  |  | deltaTm [14]: inactive |
| CC(=O)Nc1ccc(-n2c(-c3cccnc3N)nc3cccnc32)cc1 |  |  |  |  |  |  |  |  | 1300 |  |  | 3.7 |  |  |
| Cc1n[nH]c2ccc(-c3cncc(OC[C@@H](N)Cc4ccccc4)c3)cc12 |  |  |  |  |  |  |  |  |  |  |  |  |  | ΔTm [16]: 2.12 °C; deltaTm [17]: inactive; deltaTm [18]: inactive; ΔTm [19]: 1.3 °C |
| CC(C)(C)c1ccc(-n2c(-c3cccnc3)nc3cccnc32)cc1 |  |  |  |  |  |  |  |  | 185000 |  |  |  |  | deltaTm [14]: inactive |
| CC(C)(C)c1ccc(-n2c(-c3ccncc3)nc3cccnc32)cc1 |  |  |  |  |  |  |  |  | > 300000 |  |  |  |  | deltaTm [14]: inactive |
| CC(=O)NCc1ccc(-n2c(-c3cccnc3N)nc3cccnc32)cc1 |  |  |  |  |  |  |  |  | 810 |  |  | 2.3 |  |  |
| Nc1ncccc1-c1nc2ccc(-c3cccnc3)nc2n1-c1ccc(CC(=O)Nc2ccccc2)cc1 | 65 | 69 | 55 | 51 | 480 | 2500 | 9400 | 5.1 | 50 | 25 | 390 | 10.8 | 8800 | ΔTm [10]: 1.8 °C |
| Nc1ncccc1-c1nc2cc(-c3ccccc3)cnc2n1-c1ccc(CNC(=O)c2ccccc2)cc1 | 330 | 160 | 680 | 1100 | 1800 | 980 | > 100000 | 1.2 | 33 | 51000 | > 100000 | 5.61 | > 100000 | deltaTm [10]: inactive |
| Nc1ncccc1-c1nc2ccc(-c3ccccc3)nc2n1-c1ccc(CNC(=O)c2ccccc2)cc1 | 68 | > 10000 | 180 | > 10000 | 410 | > 10000 | 9500 | 6.4 | 24 | 35 | 390 | 11 | 5500 | ΔTm [10]: 1.8 °C |
| CC(=O)Nc1cccc(-c2ccc3nc(-c4cccnc4N)n(-c4ccc(CNC(=O)c5ccccc5)cc4)c3n2)c1 | 130 | 110 | 140 | 170 | 910 | 840 | 1600 | 6.7 | 15 | 47 | 170 | 12.8 | 1500 | ΔTm [10]: 2.5 °C |
| Nc1ncccc1-c1nc2cccnc2n1-c1ccc(CNCc2ccccc2)cc1 |  |  |  |  |  |  |  |  | 260 |  |  | 4.9 |  |  |
| Nc1ncccc1-c1nc2cc(-c3cccnc3)cnc2n1-c1ccc(CNC(=O)c2cccc(F)c2)cc1 | 54 | 46 | 200 | 49 | 580 | 820 | 19000 | 5.4 | 5.2 | 27 |  | 9.4 | 13000 | ΔTm [10]: 1.5 °C |
| COc1ccccc1Cn1c(-c2ccncc2)nc2cc(Br)cnc21 |  |  |  |  |  |  |  |  | > 300000 |  |  |  |  | IC50 [15]: 5900 nM; deltaTm [14]: inactive |

Second part, led by results:

| IC50 [1] [nM] | IC50 [2] [nM] | IC50 [3] [nM] | IC50 [4] [nM] | IC50 [5] [nM] | IC50 [6] [nM] | IC50 [7] [nM] | ΔTm [9] [°C] | IC50 [11] [nM] | IC50 [12] [nM] | IC50 [13] [nM] | ΔTm [14] [°C] | Compound | IC50 [8] [nM] | other results |
| --- | --- | --- | --- | --- | --- | --- | --- | --- | --- | --- | --- | --- | --- | --- |
| 120 | 90 | 15 | 260 | 140 | 1500 | 3300 | 6.7 | 17 | 24 | 2500 | 11.1 | CC(=O)Nc1cccc(-c2ccc3nc(-c4cccnc4N)n(-c4ccc(CC(=O)Nc5cccc(F)c5)cc4)c3n2)c1 | 1700 | ΔTm [10]: 1.5 °C |
|  |  |  |  |  |  |  |  | 58000 |  |  |  | COc1ccccc1Cn1c(-c2cccnc2N)nc2cccnc21 |  | deltaTm [14]: inactive |
|  | 3700 | 210 | 9400 | 2100 | > 10000 | 65000 | 3.3 | 110 | 800 | > 100000 | 6 | Nc1ncccc1-c1nc2cc(C3CCCC3)cnc2n1-c1ccc(CNC(=O)c2ccccc2)cc1 | 33000 | IC50 [15]: 12000 nM; deltaTm [10]: inactive |
| < 12 | 2500 | 170 | > 10000 | 3100 | > 10000 | 65000 | 3 | 27 | 130 | > 10000 | 8.1 | Nc1ncccc1-c1nc2cc(Br)cnc2n1-c1ccc(CNC(=O)c2ccccc2)cc1 | 60000 | ΔTm [10]: 1 °C |
|  |  |  |  |  |  |  |  |  |  |  | 4.7 | Nc1ncccc1-c1nc2cccnc2n1-c1ccc(CNC(=O)Cc2ccccc2)cc1 |  |  |
|  |  |  |  |  |  |  |  | 14 |  |  | 7.3 | Nc1ncccc1-c1nc2cccnc2n1-c1ccc(NC(=O)c2ccccc2)cc1 |  |  |
| 34 | 1400 | 67 | 4200 | 740 | 3200 | 23000 | 4 |  | 32 | 370 | 9.7 | Nc1ncccc1-c1nc2ccc(-c3cccnc3)nc2n1-c1ccc(CNC(=O)c2ccccc2)cc1 | 13000 | ΔTm [10]: 1 °C |
|  |  |  |  |  |  |  |  | > 300000 |  |  |  | CC(C)(C)c1cccc(-n2c(-c3cccnc3N)nc3cccnc32)c1 |  | deltaTm [14]: inactive |
|  |  |  |  |  |  |  |  | > 300000 |  |  | 0.9 | CC(C)(C)c1ccc(-n2c(-c3cccnc3N)nc3cc(Br)cnc32)cc1 |  |  |
|  |  |  |  |  |  |  |  | 740 |  |  | 4.1 | Nc1ccc(-n2c(-c3cccnc3N)nc3cccnc32)cc1 |  |  |
| 190 | 95 | 690 | 340 | 1300 | 2100 | 10000 | 5.7 | 47 | 80 | 660 | 11.1 | Nc1ncccc1-c1nc2ccc(-c3cccnc3)nc2n1-c1ccc(CNC(=O)c2cccc(F)c2)cc1 | 10000 | ΔTm [10]: 1.6 °C |
|  |  |  |  |  |  |  |  |  |  |  | 1.9 | CC(C)(C)c1ccc(-n2c(-c3cccnc3N)nc3cccnc32)cc1 |  |  |
